According to paper PMC12517324, “Hyperagonism of a Vitamin D Receptor Agonist/Histone Deacetylase Inhibitor Hybrid Molecule” (Journal of Medicinal Chemistry, 2025):

Test system: B16–F10 cells
Experiment: RNaseq gene expression profiling;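 for logFC Ak4: Hybrid compounds tested at 10 µM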;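 for logFC Cck: Hybrid compounds tested at 10 µM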;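 for logFC Cited1: Hybrid compounds tested at 10 µM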;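 for logFC Gpd1: Hybrid compounds tested at 10 µM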;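 for logFC Mgll: Hybrid compounds tested at 10 µM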;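 for logFC Nr4a3: Hybrid compounds tested at 10 µM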;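 for logFC Rnf145: Hybrid compounds tested at 10 µM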;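 for logFC Rpia: Hybrid compounds tested at 10 µM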;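 for logFC Sema7a: Hybrid compounds tested at 10 µM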;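 for logFC Snrpd1: Hybrid compounds tested at 10 µM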;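 for logFC Spc24: Hybrid compounds tested at 10 µM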;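 for logFC Tk1: Hybrid compounds tested at 10 µM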;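 for logFC Tonsl: Hybrid compounds tested at 10 µM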;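 for logFC Tpi1: Hybrid compounds tested at 10 µM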;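 for logFC Ugdh: Hybrid compounds tested at 10 µM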
Format: cell-based, mouse
Procedure: AC-340 superinduced CYP24A1 expression in all cell lines tested, and ZG-126 appeared to be a hyperagonist in SK-MEL-28 cells. […] AC-340 treatment produced 3 times more differentially expressed genes (DEGs) than AM-193, with ZG-126 producing an intermediate number (Figure A). […] The varying effects of each treatment on the numbers of regulated genes and the fold changes observed are reflected in plots of log-fold changes and volcano plots (Figure S3B).
A quality control was performed before sequencing in paired-end at 50 M reads by Illumina NovaSeq 6000 S4 PE100. After sequencing, the FASTQ files were sent to us and all downstream analysis were performed on Galaxy (Galaxy (usegalaxy.org)). First, trimmomatic tool was used to remove the adapters from the reads. Then, using the alignment tool, HISAT2, the reads were mapped to the mouse genome. In the next step, the counted reads were annotated and finally the list of differentially expressed genes (DEGs) for each treatment was obtained using the preinstalled R package called Limma.

CCC(CC)(c1ccc(OCCCCCC(=O)NO)cc1)c1ccc(OCC(O)C(C)(C)C)c(C)n1 (stereo not shown) [AM-193]
logFC Rnf145 (RNAseq, gene Rnf145, AM193-significant genes): -0.7842 | logFC Rpia (RNAseq, gene Rpia, AM193-significant genes): -0.7096 | logFC Samd1 (RNAseq, gene Samd1, AM193-significant genes): -0.798 | logFC Selenbp1 (RNAseq, gene Selenbp1, AM193-significant genes): -1.012 | logFC Sema7a (RNAseq, gene Sema7a, AM193-significant genes): -0.8174 | logFC Sfxn2 (RNAseq, gene Sfxn2, AM193-significant genes): -0.9624 | logFC Sigmar1 (RNAseq, gene Sigmar1, AM193-significant genes): -0.7437 | logFC Sik1 (RNAseq, gene Sik1, AM193-significant genes): -0.7218 | logFC Ska3 (RNAseq, gene Ska3, AM193-significant genes): -0.7116 | logFC Slc2a1 (RNAseq, gene Slc2a1, AM193-significant genes): -1.04 | logFC Slc37a4 (RNAseq, gene Slc37a4, AM193-significant genes): -0.9222 | logFC Slc39a10 (RNAseq, gene Slc39a10, AM193-significant genes): -0.7848 | logFC Snrpa1 (RNAseq, gene Snrpa1, AM193-significant genes): -1.002 | logFC Snrpd1 (RNAseq, gene Snrpd1, AM193-significant genes): -0.7702 | logFC Spc24 (RNAseq, gene Spc24, AM193-significant genes): -0.7364 | logFC Srm (RNAseq, gene Srm, AM193-significant genes): -1.055 | logFC Tarbp1 (RNAseq, gene Tarbp1, AM193-significant genes): -0.7191 | logFC Tbl2 (RNAseq, gene Tbl2, AM193-significant genes): -0.8635 | logFC Tet1 (RNAseq, gene Tet1, AM193-significant genes): -0.8944 | logFC Tfap4 (RNAseq, gene Tfap4, AM193-significant genes): -1.016 | logFC Tinagl1 (RNAseq, gene Tinagl1, AM193-significant genes): -0.9151 | logFC Tk1 (RNAseq, gene Tk1, AM193-significant genes): -0.987 | logFC Tonsl (RNAseq, gene Tonsl, AM193-significant genes): -0.711 | logFC Tpi1 (RNAseq, gene Tpi1, AM193-significant genes): -0.895 | logFC Trip13 (RNAseq, gene Trip13, AM193-significant genes): -0.8647 | logFC Trmt61a (RNAseq, gene Trmt61a, AM193-significant genes): -0.7832 | logFC Trpm1 (RNAseq, gene Trpm1, AM193-significant genes): -0.743 | logFC Ttk (RNAseq, gene Ttk, AM193-significant genes): -0.8273 | logFC Uba7 (RNAseq, gene Uba7, AM193-significant genes): -0.9636 | logFC Ugdh (RNAseq, gene Ugdh, AM193-significant genes): -0.8794 | logFC Ugp2 (RNAseq, gene Ugp2, AM193-significant genes): -0.7144 | logFC Uhrf1 (RNAseq, gene Uhrf1, AM193-significant genes): -0.8121 | logFC Xrcc3 (RNAseq, gene Xrcc3, AM193-significant genes): -0.7656 | logFC Abca12 (RNaseq, B16–F10 cells, gene Abca12 (ATP-binding cassette, sub-family A (ABC1), member 12), sheet AM193-significant genes): -1.21 | logFC Ak4 (RNaseq, B16–F10 cells, gene Ak4 (adenylate kinase 4), sheet AM193-significant genes): -1.909 | logFC Bnip3 (RNaseq, B16–F10 cells, gene Bnip3 (BCL2/adenovirus E1B interacting protein 3), sheet AM193-significant genes): -1.2222 | logFC Cck (RNaseq, B16–F10 cells, gene Cck (cholecystokinin), sheet AM193-significant genes): -1.792 | logFC Cited1 (RNaseq, B16–F10 cells, gene Cited1 (Cbp/p300-interacting transactivator with Glu/Asp-rich carboxy-terminal domain 1), sheet AM193-significant genes): -1.397 | logFC Dna2 (RNaseq, B16–F10 cells, gene Dna2 (DNA replication helicase/nuclease 2), sheet AM193-significant genes): -1.157 | logFC Gpd1 (RNaseq, B16–F10 cells, gene Gpd1 (glycerol-3-phosphate dehydrogenase 1 (soluble)), sheet AM193-significant genes): -1.351 | logFC H2bc12 (RNaseq, B16–F10 cells, gene H2bc12 (H2B clustered histone 12), sheet AM193-significant genes): -1.307 | logFC H3c8 (RNaseq, B16–F10 cells, gene H3c8 (H3 clustered histone 8), sheet AM193-significant genes): -1.15 | logFC Hk2 (RNaseq, B16–F10 cells, gene Hk2 (hexokinase 2), sheet AM193-significant genes): -1.284 | logFC Kit (RNaseq, B16–F10 cells, gene Kit (KIT proto-oncogene receptor tyrosine kinase), sheet AM193-significant genes): -2.0666 | logFC Lpar5 (RNaseq, B16–F10 cells, gene Lpar5 (lysophosphatidic acid receptor 5), sheet AM193-significant genes): -1.721 | logFC Megf6 (RNaseq, B16–F10 cells, gene Megf6 (multiple EGF-like-domains 6), sheet AM193-significant genes): -1.186 | logFC Mgll (RNaseq, B16–F10 cells, gene Mgll (monoglyceride lipase), sheet AM193-significant genes): -1.2265 | logFC Mknk2 (RNaseq, B16–F10 cells, gene Mknk2 (MAP kinase-interacting serine/threonine kinase 2), sheet AM193-significant genes): -1.156 | logFC Nr4a3 (RNaseq, B16–F10 cells, gene Nr4a3 (nuclear receptor subfamily 4, group A, member 3), sheet AM193-significant genes): -2.364 | logFC Oas2 (RNaseq, B16–F10 cells, gene Oas2 (2'-5' oligoadenylate synthetase 2), sheet AM193-significant genes): -1.532 | logFC Pafah1b3 (RNaseq, B16–F10 cells, gene Pafah1b3 (platelet-activating factor acetylhydrolase, isoform 1b, subunit 3), sheet AM193-significant genes): -1.354 | logFC Pdk1 (RNaseq, B16–F10 cells, gene Pdk1 (pyruvate dehydrogenase kinase, isoenzyme 1), sheet AM193-significant genes): -1.253 | logFC Sapcd2 (RNaseq, B16–F10 cells, gene Sapcd2 (suppressor APC domain containing 2), sheet AM193-significant genes): -1.167 | logFC Slc16a3 (RNaseq, B16–F10 cells, gene Slc16a3 (solute carrier family 16 (monocarboxylic acid transporters), member 3), sheet AM193-significant genes): -1.321 | logFC (gene 1700019D03Rik): 1.314 | logFC (gene 4930455G09Rik): 1.641 | logFC (gene Abca8b): 1.273 | logFC (gene Abcd2): 4.745 | logFC (gene Adamts7): 1.528 | logFC (gene Adamtsl5): 1.436 | logFC (gene Adssl1): 1.51 | logFC (gene Afap1l2): 1.64 | logFC (gene Akna): 1.375 | logFC (gene Aldh1l2): 1.268 | logFC (gene Ankrd23): 1.409 | logFC (gene Asns): 1.391 | logFC (gene Atp1b2): 1.2305 | logFC (gene Atp2b4): 1.278 | logFC (gene Atp8b3): 1.445 | logFC (gene Bmf): 1.318 | logFC (gene C1s1): 1.363 | logFC (gene Cacng7): 1.328 | logFC (gene Car11): 1.215 | logFC (gene Cebpb): 1.421 | logFC (gene Chn1): 1.21 | logFC (gene Cnn2): 1.571 | logFC (gene Col20a1): 1.535 | logFC (gene Csdc2): 1.317 | logFC (gene Cth): 1.456 | logFC (gene Ctsf): 1.525 | logFC (gene Cyb5r2): 1.681 | logFC (gene Dagla): 1.633 | logFC (gene Dbp): 1.36 | logFC (gene Ddr2): 1.2413 | logFC (gene Dgat1): 1.203 | logFC (gene Dgka): 1.571 | logFC (gene Dglucy): 1.251 | logFC (gene Eef2k): 1.203 | logFC (gene Efhd1): 5.014 | logFC (gene Ehd3): 1.292 | logFC (gene Fam83f): 1.352 | logFC (gene Fam178b): 1.456 | logFC (gene Fbxo2): 1.302 | logFC (gene Fbxo41): 1.469 | logFC (gene Fry): 1.598 | logFC (gene Fstl1): 1.467 | logFC (gene Gjc3): 1.602 | logFC (gene Gli1): 1.6149 | logFC (gene Glipr2): 1.645 | logFC (gene Gm19705): 1.68 | logFC (gene Gpr158): 1.296 | logFC (gene Gpr162): 1.524 | logFC (gene Gstm7): 1.44 | logFC (gene Heg1): 1.713 | logFC (gene Hid1): 1.246 | logFC (gene Hoga1): 1.608 | logFC (gene Hrc): 1.3608 | logFC (gene Id3): 1.638 | logFC (gene Inpp5e): 1.325 | logFC (gene Itga8): 1.267 | logFC (gene Jam2): 1.325 | logFC (gene Kif9): 1.315 | logFC (gene Lrrc75b): 1.346 | logFC (gene Lrtm2): 4.986 | logFC (gene Ltbp4): 1.39 | logFC (gene Mettl27): 1.2162 | logFC (gene Mmp11): 1.398 | logFC (gene Mmp28): 4.741 | logFC (gene Mxd4): 1.4725 | logFC (gene Nccrp1): 5.249 | logFC (gene Neurl3): 1.34 | logFC (gene Notch1): 1.541 | logFC (gene Notch3): 1.442 | logFC (gene Nova2): 1.445 | logFC (gene Nupr1): 1.537 | logFC (gene Nwd1): 1.316 | logFC (gene Pcdh1): 1.75 | logFC (gene Pck2): 1.456 | logFC (gene Pdlim2): 1.539 | logFC (gene Phlda3): 1.237 | logFC (gene Phyhd1): 1.588 | logFC (gene Pierce2): 1.323 | logFC (gene Plk2): 1.532 | logFC (gene Prelp): 5.529 | logFC (gene Prox1): 1.361 | logFC (gene Ptges): 4.4154 | logFC (gene Reck): 1.669 | logFC (gene Rom1): 1.351 | logFC (gene Scamp1): 1.346 | logFC (gene Scube3): 1.291 | logFC (gene Serpinb9b): 1.695 | logFC (gene Shank1): 1.222 | logFC (gene Slc17a7): 1.733 | logFC (gene Slc25a35): 1.406 | logFC (gene Slc25a42): 1.347 | logFC (gene Slc43a2): 1.207 | logFC (gene Sparc): 1.263 | logFC (gene Spn): 1.262 | logFC (gene Sync): 1.481 | logFC (gene Syt7): 1.364 | logFC (gene Trnp1): 1.3245 | logFC (gene Vdr): 5.618 | logFC (gene Wnt10a): 4.9613 | logFC (gene Zfr2): 1.286
